Assay results published in BindingDB's records for doi:10.1021/jm9004225 (National Institute On Drug Abuse and The National Institute …, 2009).

Test: Displacement of [3H]U69593 from human recombinant kappa opioid receptor expressed in CHO cells

## CC[C@]12CCN(C)C[C@H]1Oc1ccc(O)cc12 [4aR,9aS-(+)-cis-4a-Ethyl-2-methyl-1,2,3,4,4a,9a-hexahydrobenzofuro[2,3-c]pyridin-6-ol]
  Ki: > 10 µM
